According to patent US7928210B2, “Nucleoside based proliferation imaging markers” (Siemens Medical Solutions USA, Inc., priority 2007, dated 2011):
Entries after “also recorded” stand apart in the source; their conditions may differ.

Assays:
[1] = target: T1, human thymidine kinase 1 (hTK1) (Homo sapiens, UniProt P04183); experiment: hTK-1 kinase phosphorylation, metabolites monitored by LC/MS-SIM; conditions: in vitro
T1 sequence (P04183 1-234): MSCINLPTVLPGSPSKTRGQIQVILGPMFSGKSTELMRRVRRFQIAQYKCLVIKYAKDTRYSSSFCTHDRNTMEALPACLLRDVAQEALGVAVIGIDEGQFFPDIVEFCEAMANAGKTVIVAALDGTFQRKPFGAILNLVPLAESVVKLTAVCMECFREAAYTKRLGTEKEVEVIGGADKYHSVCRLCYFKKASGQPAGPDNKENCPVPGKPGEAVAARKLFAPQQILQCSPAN

A431 tumor bearing mice = experiment: In vivo imaging of A431 tumor bearing mice (clearance, tumor localization, tumor ratios); parameters: species or system mouse; conditions: for Type of Clearance / Localization within the tumor: in vivo (rodents), A431 tumor; for Ratio T/M: tumor to muscle; for Ratio T/B: tumor to background, p.i. 45 min
[2] = test system: A172 cell line (human brain glioblastoma, low S phase); experiment: Cancer cell uptake, A172; conditions: for Cell Uptake: (iii) A172; for Uptake and intracellular retention: A172 cells in vitro
[3] = test system: A431 cell line (human skin epidermoid carcinoma, high S phase); experiment: Cancer cell uptake, A431; conditions: (i) A431
[4] = test system: SK-N-MC cell line (human brain neuroepithelioma, high S phase); experiment: Cancer cell uptake, SK-N-MC; conditions: for Cell Uptake: (ii) SK-N-MC; for Uptake and intracellular retention: SK-N-MC cells in vitro
DNA = experiment: Incorporation into DNA compared against FMAU; format: cell-based; conditions: data not shown
[5] = cited from earlier work
Balb/3T12-3 cells = experiment: Cell uptake, Balb/3T12-3; conditions: for Cell Uptake: (iv) Balb/3T12-3; for Uptake and intracellular retention: BalB/3T12-3 cells in vitro
[6] = test system: human liver cancer cells (HepG2); experiment: Liver cell uptake by LC/MS-SIM, human liver cancer cells; format: cell-based; conditions: HepG2, in vitro
From the text: (§1) The mouse liver cell uptake of a small number of thymidine analogs was higher than FLT and thymidine, and the levels of human liver cell uptake were similar to FLT and thymidine. Ideally, low levels of liver cell uptake help increase the tumor to background ratios in the PET image. Furthermore, we examined the metabolic profile of the leads (Ta-1, Ta-4, and Ta-10) in vitro using normal mouse liver cell line (AML12) and human liver cancer cell line (HepG2).

[7] = test system: normal mouse liver cells (AML12); experiment: Liver cell uptake by LC/MS-SIM, normal mouse liver cells; format: cell-based; conditions: AML12, in vitro
From the text: as §1

Row | Compound | Pi % (phosphorylation percentage) [1] | Localization within the tumor (A431 tumor bearing mice) | Type of Clearance (A431 tumor bearing mice) | Cell Uptake [2] | Cell Uptake [3] | Cell Uptake [4] | further results
1 | Cc1cn([C@H]2CC(O)[C@@H](CO)O2)c(=O)n(CC(O)CF)c1=O (stereo partly shown) [Ta-10] | 27.5% | ≤ 1 % ID/g | Clear through the gut/renal system; localize moderately within the tumor | 0.017 | 0.023 | 0.031 | Ratio T/M (A431 tumor bearing mice; time not given): 0.35 (T/M); Incorporation into DNA (DNA): substantially lower
2 | Cc1cn([C@H]2CC(F)[C@@H](CO)O2)c(=O)n(CCF)c1=O (stereo partly shown) [Ta-6] | 4.5% | – | – | 0.004 | 0.023 | 0.007 | –
3 | Cc1cn([C@H]2CC(O)[C@@H](CO)O2)c(=O)n(Cc2cn(Cc3cc(F)ccn3)nn2)c1=O (stereo partly shown) [Ta-2] | 39.2% | – | – | 0.071 | 0.019 | 0.030 | Cell Uptake (Balb/3T12-3 cells): 0.090
4 | Cc1cn([C@H]2CC(F)[C@@H](CO)O2)c(=O)n(CCF)c1=O (stereo partly shown) [Ta-4F] | 9.2% | – | – | 0.067 | 0.075 | 0.063 | –
5 | Cc1cn([C@H]2CC(O)[C@@H](CO)O2)c(=O)n(Cc2cn(CCF)nn2)c1=O (stereo partly shown) [Ta-1] | 65.6% | ≤ 1 % ID/g | despite rapid gut clearance, a small percentage of the inject dose penetrated and localized within the tumor; also recorded: Clear through the gut/ hepatobiliary system; localize mainly in the gut; a small percentage of the inject dose penetrate and localize within the tumor | 0.042 | 0.045 | 0.081 | Uptake and intracellular retention [2]: favorably taken up and retained intracellularly; Uptake and intracellular retention [4]: favorably taken up and retained intracellularly; Ratio T/M (A431 tumor bearing mice; p.i. 50 min): 2.1 (T/M; p.i. 50 min); Cell Uptake (Balb/3T12-3 cells): 0.064; Uptake and intracellular retention (Balb/3T12-3 cells): favorably taken up and retained intracellularly
6 | Cc1cn([C@H]2CC(O)[C@@H](CO)O2)c(=O)n(Cc2cn([C@H](C(=O)NCc3ccccc3)C(C)C)nn2)c1=O (stereo partly shown) [Ta-6233] | 71.5% | – | – | – | – | – | –
7 | Cc1cn([C@H]2CC(O)[C@@H](CO)O2)c(=O)n(CCCF)c1=O (stereo partly shown) [Ta-14] | – | – | – | – | – | – | Incorporation into DNA (DNA): substantially lower
8 | Cc1cn([C@H]2CC(O)[C@@H](CO)O2)c(=O)n(Cc2cn(Cc3cccc(Br)c3)nn2)c1=O (stereo partly shown) [Ta-4D] | 51.9% | – | – | – | – | – | –
9 | Cc1cn([C@H]2CC(O)[C@@H](CO)O2)c(=O)n(Cc2cn([C@H](C(=O)NCc3cc(F)ccn3)C(C)C)nn2)c1=O (stereo partly shown) [Ta-3] | 25.5% | – | large localization of the tracer in the gut and clearance through the bowels; also recorded: Clear through the bowels; localize mainly in the gut | 0.093 | 0.004 | 0.059 | Cell Uptake (Balb/3T12-3 cells): 0.117
10 | Cc1cn([C@H]2CC(O)[C@@H](CO)O2)c(=O)n(CCn2cc(CF)nn2)c1=O (stereo partly shown) [Ta-5] | 10.2% | – | – | 0.051 | 0.068 | 0.072 | –
11 | Cc1cn([C@H]2CC(F)[C@@H](CO)O2)c(=O)n(Cc2cn(CCF)nn2)c1=O (stereo partly shown) [FLT-Click-2] | 4.5% | ≤ 1 % ID/g | Clear through the gut/ hepatobiliary system; localize moderately within the tumor | – | 0.003 | 0.080 | Ratio T/B (A431 tumor bearing mice): 1.75 (T/B; (p.i. 45 min)

More lines, main results first:

Row | Pi % (phosphorylation percentage) [1] | Localization within the tumor (A431 tumor bearing mice) | Compound | Type of Clearance (A431 tumor bearing mice) | Cell Uptake [2] | Cell Uptake [3] | Cell Uptake [4] | further results
12 | 6.1% | – | Cc1cn([C@H]2CC(n3cc(CF)nn3)[C@@H](CO)O2)c(=O)[nH]c1=O (stereo partly shown) [FLT-Click-1] | Clear very rapidly from the blood; localize mainly in the bladder | – | – | – | –
13 | 5.6% | ≤ 1 % ID/g | Cc1cn([C@@H]2O[C@H](CO)C(O)C2OCCF)c(=O)[nH]c1=O (stereo partly shown) [Ta-7] | Clear through the gut/ hepatobiliary system; localize mainly in the gut; a small percentage of the inject dose penetrate and localize within the tumor | 0.004 | 0.027 | 0.083 | Ratio T/M (A431 tumor bearing mice; time not given): 1.05 (T/M)
14 | 0% | – | O=c1[nH]c(=O)n([C@H]2CC(O)[C@@H](CO)O2)cc1-c1cn(CCF)nn1 (stereo partly shown) [FLT-Click-3] | Clear through the gut; but did not localize within the tumor | – | – | – | Ratio T/B (A431 tumor bearing mice): 1.1 (T/B; p.i. 45 min)
15 | 80% | – | Cc1cn([C@@H]2O[C@H](CO)C(O)C2F)c(=O)[nH]c1=O (stereo partly drawn) [FMAU, 1-(2′-deoxy-2′-[^18F]fluoro-β-D-arabinofuranosyl)-5-methyluracil, reference compound] | – | 0.015 | 0.012 | 0.011 | Type of Clearance ([5]; known / literature (Sun et al. 2005 for FMAU; 11C label for thymidine)): Hepatobiliary clearance^c; Incorporation into DNA (DNA): very high
16 | 18.2% | ≤ 1 % ID/g | Cc1cn([C@@H]2O[C@H](CO)C(O)C2O)c(=O)n(CCF)c1=O (stereo partly shown) [Ta-8] | Clear through the renal system; localize moderately within the tumor | 0.018 | 0.052 | 0.097 | Ratio T/M (A431 tumor bearing mice; time not given): 0.99 (T/M)
17 | 31% | – | Cc1cn([C@H]2CC(F)[C@@H](CO)O2)c(=O)[nH]c1=O (stereo partly shown) [FLT, 3′-[^18F]fluoro-3′-deoxythymidine, reference compound] | Clear through renal system; localize within the tumor | – | – | – | Injected dose per gram in tumors, on average ([5]; background section): 5%
18 | 1.4% | – | Cc1cn([C@@H]2O[C@H](CO)C(O)C2F)c(=O)n(CCF)c1=O (stereo partly shown) [Ta-9] | – | 0.009 | 0.027 | 0.014 | –
19 | 77.4% | 2-3.5 % ID/g | Cc1cn([C@H]2CC(O)[C@@H](CO)O2)c(=O)n(CCF)c1=O (stereo partly shown) [Ta-4, 3-N-(2′-[^18F]fluoroethyl)-thymidine] | has less liver uptake than Ta-1, localizes more strongly within the A-431 based tumor and possesses a clearance mechanism similar to FLT; also recorded: Less liver uptake than Ta-1; localize more strongly within the A431 based tumor; possess a clearance mechanism similar to FLT | 0.142 | 0.172 | 0.218 | Uptake and intracellular retention [2]: favorably taken up and retained intracellularly; Uptake and intracellular retention [4]: favorably taken up and retained intracellularly; Ratio T/M (A431 tumor bearing mice; p.i. 50 min): 2.3 (T/M; p.i 50 min); Liver cell uptake [6]: less than Ta-1; Liver cell uptake [7]: less than Ta-1; Uptake and intracellular retention (Balb/3T12-3 cells): favorably taken up and retained intracellularly; Incorporation into DNA (DNA): substantially lower
20 | 9.8% | ≤ 1 % ID/g | Cc1cn([C@@H]2O[C@H](CO)C(O)C2O)c(=O)n(CCF)c1=O (stereo partly shown) [Ta-11] | Clear through the renal system; localize moderately within the tumor | 0.006 | 0.03 | 0.02 | Ratio T/M (A431 tumor bearing mice; time not given): 0.52 (T/M)
